Tests used:
Experiment in all cases: Bliss excess, mean over the matrix (fraction); higher = more synergy
UACC-62 (Melanoma) = test system: UACC-62 (Melanoma)
How it was run: (§1)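 Cell lines in DMEM/F12 or RPMI with 10% FBS were plated in 1536-well plates, held 24 hours at 37°C, 5% CO2, then given two-drug dose matrices for 72 hours (DMSO typically 0.2%). Viability was read by CellTiter-Glo 2.0 luminescence and scaled as inhibition from 0 (vehicle wells) to 1 (blank wells). Combination Emax is the second-highest inhibition in the matrix; Bliss excess is observed combination effect minus expected EA + EB − EA·EB, EA and EB being single-agent effects.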

TK10 (Kidney Carcinoma) = test system: TK10 (Kidney Carcinoma)
How it was run: as §1

PWR-1E (Non-Cancerous) = test system: PWR-1E (Non-Cancerous)
How it was run: as §1

[1] = test system: OVCAR-4 (Ovarian Carcinoma)
How it was run: as §1

[2] = test system: TE-1 (Esophageal Squamous Cell Carcinoma)
How it was run: as §1

[3] = test system: SCC-15 (Oral Cavity Carcinoma)
How it was run: as §1

[4] = test system: KMOE-2 (Acute Myeloid Leukemia)
How it was run: as §1

[5] = test system: LU-65 (Non-Small Cell Lung Carcinoma)
How it was run: as §1

[6] = test system: HSC-4 (Oral Cavity Carcinoma)
How it was run: as §1

[7] = test system: KYSE-450 (Esophageal Squamous Cell Carcinoma)
How it was run: as §1

[8] = test system: KARPAS-299 (T-Cell Non-Hodgkin's Lymphoma)
How it was run: as §1

[9] = test system: C-4-I (Cervical Carcinoma)
How it was run: as §1

[10] = test system: MLMA (Other Blood Carcinomas)
How it was run: as §1

[11] = test system: BT-549 (Breast Carcinoma)
How it was run: as §1

[12] = test system: EoL-1-cell (Acute Myeloid Leukemia)
How it was run: as §1

[13] = test system: PANC-04-03 (Pancreatic Carcinoma)
How it was run: as §1

[14] = test system: MIA-PaCa-2 (Pancreatic Carcinoma)
How it was run: as §1

[15] = test system: OE19 (Esophageal Adenocarcinoma)
How it was run: as §1

[16] = test system: VA-ES-BJ (Other Solid Carcinomas)
How it was run: as §1

ACHN (Kidney Carcinoma) = test system: ACHN (Kidney Carcinoma)
How it was run: as §1

SMILES	Bliss excess (UACC-62 (Melanoma))	Bliss excess (TK10 (Kidney Carcinoma))	Bliss excess (PWR-1E (Non-Cancerous))	Bliss excess [1]	Bliss excess [2]	Bliss excess [3]	Bliss excess [4]	Bliss excess [5]	Bliss excess [6]	Bliss excess [7]	Bliss excess [8]	Bliss excess [9]	Bliss excess [10]	Bliss excess [11]	Bliss excess [12]	Bliss excess [13]	Bliss excess [14]	Bliss excess [15]	Bliss excess [16]	Bliss excess (ACHN (Kidney Carcinoma))
COc1nnc2ccc(N3CCC(c4ccc(OCCN5CCN(C)C(=O)[C@H]5C)cc4)CC3)nn12 [AZD5153] + CC1(C)CCC(CN2CCN(c3ccc(C(=O)NS(=O)(=O)c4ccc(NCC5CCOCC5)c([N+](=O)[O-])c4)c(Oc4cnc5[nH]ccc5c4)c3)CC2)=C(c2ccc(Cl)cc2)C1 [Venetoclax] (first compound max 1 µM, 7x7, partner max 1 µM)	-0.0271	-0.0549	-0.0826	-0.0104	-0.0383	-0.0681	-0.0718	-0.072	-0.0705	-0.0404	-0.0419	-0.05	-0.0084	-0.0031	-0.0183	-0.0341	-0.0739	0.0029	-0.0486	-0.0499
COc1cccc(OCCCN)c1-c1cc(Nc2cnc(C#N)cn2)n[nH]1 [Prexasertib] + CCc1c2c(nc3ccc(O)cc13)-c1cc3c(c(=O)n1C2)COC(=O)[C@]3(O)CC [SN-38] (first compound max 1 µM, 7x7, partner max 0.3 µM)	-0.042	-0.0257	0.0309	0.0476	-0.0025	-0.0236	0.0296	-0.0185	-0.0372	0.19	-0.0223	0.0026	-0.0732	-0.0474	-0.0317	-0.067	0.0334	0.129	-0.044	-0.0755
Cn1cnc2c(F)c(Nc3ccc(Br)cc3Cl)c(C(=O)NOCCO)cc21 [Selumetinib] + C=CCn1c(=O)c2cnc(Nc3ccc(N4CCN(C)CC4)cc3)nc2n1-c1cccc(C(C)(C)O)n1 [AZD1775] (first compound max 10 µM, partner max 1 µM)	-0.0006	-0.0412	-0.0663	-0.0698	-0.0277	-0.075	0.0111	0.0065	-0.041	-0.037	0.0463	0.0083	-0.0257	-0.0578	-0.053	-0.0351	0.0552	-0.132	-0.112	-0.0527
CCN(CCO)CCCOc1ccc2c(Nc3cc(CC(=O)Nc4cccc(F)c4)[nH]n3)ncnc2c1 [AZD2811] + C=CCn1c(=O)c2cnc(Nc3ccc(N4CCN(C)CC4)cc3)nc2n1-c1cccc(C(C)(C)O)n1 [AZD1775] (first compound max 1 µM, partner max 1 µM)	-0.029	-0.0707	0.118	0.0107	0.019	0.0237	-0.0181	-0.0557	-0.0467	-0.0206	0.0057	0.0264	0.0432	0.017	-0.0033	-0.0441	0.0756	-0.0152	0.0263	0.0555
CS(=O)(=O)CCNCc1ccc(-c2ccc3ncnc(Nc4ccc(OCc5cccc(F)c5)c(Cl)c4)c3c2)o1 [Lapatinib] + C[C@@H](Oc1cc(-c2cnn(C3CCNCC3)c2)cnc1N)c1c(Cl)ccc(F)c1Cl [Crizotinib] (first compound max 10 µM, 7x7, partner max 10 µM)	-0.0153	-0.0655	-0.0184	-0.0231	0.0266	-0.0015	0.0174	-0.0236	-0.0097	-0.0486	0.0532	0.0399	-0.0721	-0.0916	-0.0547	-0.0586	-0.0517	-0.007	0.005	-0.0558
CC(=O)c1c(C)c2cnc(Nc3ccc(N4CCNCC4)cn3)nc2n(C2CCCC2)c1=O [Palbociclib] + Cn1cnc2c(F)c(Nc3ccc(Br)cc3Cl)c(C(=O)NOCCO)cc21 [Selumetinib] (first compound max 10 µM, 7x7, partner max 10 µM)	-0.0359	0.0072	-0.0609	-0.0471	0.0048	-0.0721	-0.0028	0.0042	-0.0488	0.0539	0.0661	-0.0119	0.0398	-0.0254	0.112	-0.0213	0.0413	0.0203	-0.0518	0.0146
COc1cccc(OCCCN)c1-c1cc(Nc2cnc(C#N)cn2)n[nH]1 [Prexasertib] + O=C(c1cc(Cc2n[nH]c(=O)c3ccccc23)ccc1F)N1CCN(C(=O)C2CC2)CC1 [Olaparib] (first compound max 1 µM, 7x7, partner max 10 µM)	-0.0183	-0.0975	-0.211	-0.0589	-0.11	0.0242	0.0279	-0.0678	0.029	-0.025	-0.0318	-0.0783	-0.0442	0.0195	-0.0146	-0.0415	-0.0781	-0.125	-0.0337	-0.0857
COc1cccc(OCCCN)c1-c1cc(Nc2cnc(C#N)cn2)n[nH]1 [Prexasertib] + C[C@@H]1COCCN1C2=NC(=NC(=C2)C3(CC3)[S@](=N)(=O)C)C4=C5C=CNC5=NC=C4 [AZD6738] (first compound max 1 µM, 7x7, partner max 10 µM)	-0.0174	0.0238	0.0243	-0.025	-0.0617	-0.0316	-0.0043	-0.0173	0.0305	0.0135	-0.0184	-0.0449	-0.0514	0.0054	-0.0109	0.0017	-0.105	-0.0277	-0.0114	-0.0503
Cc1c2c(nn1C)CSCc1cc(n(C)n1)CSc1cc(c3ccccc3c1)OCCCc1c(C(=O)O)n(C)c3c-2c(Cl)ccc13 [AZD5991] + C1CN(CCC1(C(=O)N[C@@H](CCO)C2=CC=C(C=C2)Cl)N)C3=NC=NC4=C3C=CN4 [Capivasertib] (first compound max 1 µM, 7x7, partner max 3 µM)	0.0121	-0.031	-0.0077	-0.0114	-0.0107	0.0106	-0.002	-0.013	-0.0327	-0.009	0.0078	0.0117	0.0394	0.0274	0.0528	-0.0094	0.0125	-0.0273	-0.0109	0.0107
CN(C)CCCOc1ccc(-c2ccc3ncc4c(c3c2)n(C2CCOCC2)c(=O)n4C)cn1 [AZD0156] + C[C@@H]1COCCN1C2=NC(=NC(=C2)C3(CC3)[S@](=N)(=O)C)C4=C5C=CNC5=NC=C4 [AZD6738] (first compound max 1 µM, 7x7, partner max 10 µM)	-0.0035	0.001	-0.0357	0.0213	-0.0595	-0.0209	-0.0252	0.021	-0.0461	-0.0099	-0.0283	0.0071	-0.0132	-0.0042	0.0408	-0.0398	-0.0055	0.0277	0.0085	-0.0212
Cn1cnc2c(F)c(Nc3ccc(Br)cc3Cl)c(C(=O)NOCCO)cc21 [Selumetinib] + CC(C)n1c(=O)n(C)c2cnc3cc(F)c(-c4ccc(OCCCN5CCCCC5)nc4)cc3c21 [AZD1390] (first compound max 10 µM, 7x7, partner max 0.3 µM)	-0.0092	-0.0336	-0.0467	-0.0512	0.0347	-0.0462	0.0296	0.0027	-0.085	-0.0416	0.0285	-0.0078	-0.0186	-0.0438	0.0004	-0.0287	-0.0287	-0.0326	-0.0471	0.0389
Cc1c2c(nn1C)CSCc1cc(n(C)n1)CSc1cc(c3ccccc3c1)OCCCc1c(C(=O)O)n(C)c3c-2c(Cl)ccc13 [AZD5991] + Cc1cc2ncnn2cc1Nc1ncc2c(n1)n(C1CCOCC1)c(=O)n2C [AZD7648] (first compound max 1 µM, 7x7, partner max 10 µM)	-0.0534	-0.0327	-0.0363	-0.0073	-0.0494	-0.042	-0.0085	-0.105	-0.0702	-0.0321	-0.0066	-0.0135	-0.0001	-0.0523	-0.0018	-0.0242	-0.0385	-0.0645	-0.0239	-0.0271
COc1cccc(OCCCN)c1-c1cc(Nc2cnc(C#N)cn2)n[nH]1 [Prexasertib] + Cc1cc2ncnn2cc1Nc1ncc2c(n1)n(C1CCOCC1)c(=O)n2C [AZD7648] (first compound max 1 µM, 7x7, partner max 10 µM)	-0.0125	0.0053	-0.0243	-0.0739	-0.0266	-0.0065	0.0172	-0.0099	-0.0421	-0.0017	-0.0226	0.0005	-0.0204	-0.0341	-0.0003	-0.0327	-0.0172	-0.0291	0.013	-0.0182
Cc1c2c(nn1C)CSCc1cc(n(C)n1)CSc1cc(c3ccccc3c1)OCCCc1c(C(=O)O)n(C)c3c-2c(Cl)ccc13 [AZD5991] + CN(C)CCCOc1ccc(-c2ccc3ncc4c(c3c2)n(C2CCOCC2)c(=O)n4C)cn1 [AZD0156] (first compound max 1 µM, 7x7, partner max 1 µM)	-0.0516	-0.0089	0.027	0.0076	-0.0702	-0.0048	-0.0526	-0.001	-0.0955	0.0134	0.016	0.0063	-0.0056	-0.004	-0.006	0.0116	-0.0084	-0.0242	-0.0027	0.0086
COc1cccc2c1C(=O)c1c(O)c3c(c(O)c1C2=O)C[C@@](O)(C(=O)CO)C[C@@H]3O[C@H]1C[C@H](N)[C@H](O)[C@H](C)O1 [Doxorubicin] + Cc1cc2ncnn2cc1Nc1ncc2c(n1)n(C1CCOCC1)c(=O)n2C [AZD7648] (first compound max 1 µM, 7x7, partner max 10 µM)	0.0306	0.0138	0.12	-0.0056	-0.022	0.0028	0.0867	0.0418	0.0047	0.0487	0.1	0.1	-0.0214	0.0233	0.155	-0.0394	0.0167	0.0189	0.0383	0.068

From the supplement of paper PMC11061612
